These are literature values, as cited in patent US11530413B2, “Compositions and methods to treat cancer” (NOVARTIS AG, priority 2017, dated 2022).

Like-named read-outs stand apart in the source and are kept apart here.

In data set [1] the target is T1, CBFB (Homo sapiens, UniProt Q13951).
T1 sequence (Q13951 1-182): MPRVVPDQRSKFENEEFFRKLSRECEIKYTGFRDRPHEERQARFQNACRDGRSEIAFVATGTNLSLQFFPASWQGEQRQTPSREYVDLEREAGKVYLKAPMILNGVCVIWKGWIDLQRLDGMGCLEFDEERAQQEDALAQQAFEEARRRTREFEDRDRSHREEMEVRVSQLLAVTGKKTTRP
Particulars: read-out: IC50 as CBFB inhibitor.

In data set [2] the test system is FLI1. Particulars: read-out: IC50 as FLI1 inhibitor.
In data set [3] the test system is CDK. The note with it: read-out: IC50 as multi-CDK inhibitor.
In data set [4] the target is T2, CBFbeta association with Runx1 (Homo sapiens, UniProt Q13951).
T2 sequence (Q13951 1-141 limits assumed): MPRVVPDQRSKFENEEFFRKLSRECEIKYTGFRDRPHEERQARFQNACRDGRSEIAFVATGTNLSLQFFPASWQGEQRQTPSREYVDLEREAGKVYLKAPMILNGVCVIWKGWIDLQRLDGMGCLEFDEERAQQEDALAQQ

Data set [5] has as its system GATA3. The note with it: target of the IC50 not stated; named as GATA3 inhibitor; read-out: IC50 of the steroid.
The target in data set [6] is T3, MITF (Homo sapiens, UniProt O75030).
T3 sequence (O75030 1-526): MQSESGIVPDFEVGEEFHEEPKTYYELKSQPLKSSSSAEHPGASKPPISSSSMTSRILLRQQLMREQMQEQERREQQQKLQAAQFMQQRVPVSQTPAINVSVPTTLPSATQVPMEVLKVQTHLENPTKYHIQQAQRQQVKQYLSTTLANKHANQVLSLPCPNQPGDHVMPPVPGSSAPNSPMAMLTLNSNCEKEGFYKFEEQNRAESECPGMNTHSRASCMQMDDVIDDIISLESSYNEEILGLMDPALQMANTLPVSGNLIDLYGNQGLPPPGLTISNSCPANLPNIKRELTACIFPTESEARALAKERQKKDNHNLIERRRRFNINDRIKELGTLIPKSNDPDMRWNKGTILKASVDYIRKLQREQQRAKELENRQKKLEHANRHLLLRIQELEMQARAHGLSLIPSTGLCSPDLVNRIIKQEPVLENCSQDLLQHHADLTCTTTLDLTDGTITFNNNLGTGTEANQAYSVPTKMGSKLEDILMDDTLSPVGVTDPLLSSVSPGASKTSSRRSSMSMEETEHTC
The note with it: read-out: IC50 as MITF inhibitor.

The target in data set [7] is CDK2. Particulars: read-out: Ki as CDK inhibitor.
The target of data set [8] is T1, CBFB. Particulars: read-out: IC50 as CBFB inhibitor. This is another data set of the same source.

What is called IC50 is the midpoint of a concentration-inhibition curve. As to `O=C1CN=C(c2ccc[nH]2)c2cc(Cl)ccc2N1` [Ro5-3335, 7-Chloro-1,3-dihydro-5-(1H-pyrrol-2-yl)-2H-1,4-benzodiazepin-2-one], the IC50 in data set [1] is 1100 nM.
Consider `COc1ccc(C(=O)C[C@]2(O)C(=O)Nc3c(Cl)ccc(Cl)c32)cc1` [TK-216, 4,7-dichloro-1,3-dihydro-3-hydroxy-3-[2-(4-methoxyphenyl)-2-oxoethyl]-(3R)-2H-indol-2-one], for which the IC50 in data set [2] was 449 nM.
Turning to `O=C(NC1CCNCC1)c1n[nH]cc1NC(=O)c1c(Cl)cccc1Cl` [AT7519, 4-[(2,6-Dichlorobenzoyl)amino]-N-(4-piperidinyl)-1H-pyrazole-3-carboxamide], the IC50 in data set [3] was 10 to 210 nM.
`CCc1sc(N)nc1-c1ccc(OC)cc1` [CBFB inhibitor, 5-ethyl-4-(4-methoxyphenyl)-2-thiazolamine]: in data set [4], the “IC50, binds CBFbeta and prevents its association with Runx1” value is 3200 nM.
In the case of `C[C@@H]1C[C@H]2[C@@H]3CCC4=CC(=O)C=C[C@]4(C)[C@@]3(F)[C@@H](O)C[C@]2(C)[C@@]1(O)C(=O)CO` [Dexamethasone, (8S,9R,10S,11S,13S,14S,16R,17R)-9-Fluoro-11,17-dihydroxy-17-(2-hydroxyacetyl)-10,13,16-trimethyl-6,7,8,9,10,11,12,13,14,15,16,17-dodecahydro-3H-cyclopenta[a]phenanthren-3-one], the IC50 in data set [5] was 10 nM.
Turning to `CN1CC[C@H](c2c(O)cc(O)c3c(=O)cc(-c4ccccc4Cl)oc23)[C@H](O)C1` [Flavopiridol, 2-(2-chlorophenyl)-5,7-dihydroxy-8-[(3S,4R)-3-hydroxy-1-methyl-4-piperidinyl]-4-chromenone], in data set [3], the IC50 was ~40 nM.
`NS(=O)(=O)c1ccc(NC2=CC(=O)c3ccccc3C2=O)cc1` [ML329, 4-((1,4-dioxo-1,4-dihydronaphthalen-2-yl)amino)benzenesulfonamide]: the IC50 in data set [6] is 1200 nM.
As a reminder, the Ki is a measure of affinity in units of concentration, obtained from inhibition or displacement. With `CCNCc1cncc(-c2cccc3[nH]nc(-c4nc5c(F)cc(F)cc5[nH]4)c23)c1C` [AG-024322, N-((5-(3-(4,6-difluoro-1H-benzo[d]imidazol-2-yl)-1H-indazol-4-yl)-4-methylpyridin-3-yl)methyl)ethanamine], the Ki in data set [7] was 1 to 3 nM.
`COc1cccnc1-c1nc2cc(OC(F)(F)F)ccc2[nH]1` [AI-10-104]: in data set [8], the IC50 is 1250 nM.
